Results: US20250257058A1, “COMPOSITIONS AND METHODS FOR INHIBITING CARP-1 BINDING TO NEMO” (The United States Government as represented by the …, priority 2022, published 2025)
Entries after “also recorded” stand apart in the source; their conditions may differ. Like-named read-outs stand apart in the source and are kept apart here.

Columns and labels:
[1] = system: MDA-MB-468 cells; assay: MTT cytotoxicity assay in MDA-MB-468 cells; format: cell-based; conditions: for Cell viability inhibition in combination with cisplatin compared with SNI-1: MDA-MB-468, 5 μM compound + 20 μM cisplatin; for Cell viability inhibition (%) (Single agent) MDA-MB-468: MTT, SNI analogs 5 μM, doxorubicin 5 μM, cisplatin 20 μM; for Cell viability inhibition as single agent compared with SNI-1: MDA-MB-468, single agent; for Cytotoxicity in combination with doxorubicin compared with SNI-1: MDA-MB-468, 5 μM compound + 5 μM doxorubicin
Description: (§1) The cell lines were cultured in Dulbecco's Modified Eagle's Medium and Roswell Park Memorial Institute (RPMI) as per ATCC recommendation. Media was supplemented with 10% FBS, 2 mM L-glutamine, 100 U/ml penicillin, and 100 mg/ml streptomycin and incubated at 37° C. in a 5% CO2 air humidified atmosphere.
(§2) For the in vitro cytotoxicity studies, cells were seeded in 96-well plates with approximately 5000-8000 cells per well, depending upon the cell's exponential growth.
(§3) For cytotoxic response, cells were analyzed using the MTT reagent dissolved in PBS (1 mg/ml) at pH 7.4. […] Cells were then incubated again for 2-4 hours at 37° C., after which time the MTT reagent was added and the cells were incubated an additional 2 hours. Following this, the media was supplanted by DMSO, and the plates were put on a shaker for 15 min. The absorbance was measured at 570 nm using a high-performance multi-mode plate reader (Synergy 2, BioTek). The percentage of surviving cells was calculated by comparing the treated cells' absorbance and legitimate controls cells. The same procedure was followed for all the cell lines and later calculate the percentage of viable cells independently.

[2] = system: MDA-MB-231 cells; assay: MTT cytotoxicity assay in MDA-MB-231 cells; format: cell-based; conditions: for cytotoxicity at 5 µM: Homo sapiens; for Inhibition of viabilities as single agent compared with SNI-1: 24 h or 48 h
Description: Here, SNI-1 analogs were synthesized by incorporating combinations of substitutions on Rings A and C (FIG. 8). The efficacy of these compounds was analyzed in two different cell lines: MDA-MB-468 and MDA-MB-231. […] The duration of treatment time was 24 h for […] and 24 h and 48 h for MDA-MB-231 cells. These cells are a more aggressive form of TNBC cells. It expresses both epidermal growth factor (EGF) and transforming growth factor-alpha (TGF alpha) receptors.

[3] = system: HCC-1937 cells; assay: MTT cytotoxicity assay in HCC-1937 cells (BRCA-1 mutation); conditions: 24 h
Description: as §1, §2, §3
(§4) Each histogram's columns indicate the percent of live/viable cells relative to their DMSO-treated controls.

[4] = system: HCC-1937 cells; conditions: human, 24 h, 5 μM
Description: as §1, §2, §3, §4

[5] = system: MDA-MB-231 cells; conditions: MDA-MB-231, 4T1 and resistant TNBC cells; 5 μM SNI-1 + 20 μM cisplatin; cited from earlier work
[6] = system: 4T1 TNBC; conditions: cited from earlier work
[7] = target: T1, CARP-1 and NEMO binding (Homo sapiens, UniProt Q8IX12); conditions: biochemical mechanism; cited from earlier work
T1 sequence (Q8IX12 1-1150): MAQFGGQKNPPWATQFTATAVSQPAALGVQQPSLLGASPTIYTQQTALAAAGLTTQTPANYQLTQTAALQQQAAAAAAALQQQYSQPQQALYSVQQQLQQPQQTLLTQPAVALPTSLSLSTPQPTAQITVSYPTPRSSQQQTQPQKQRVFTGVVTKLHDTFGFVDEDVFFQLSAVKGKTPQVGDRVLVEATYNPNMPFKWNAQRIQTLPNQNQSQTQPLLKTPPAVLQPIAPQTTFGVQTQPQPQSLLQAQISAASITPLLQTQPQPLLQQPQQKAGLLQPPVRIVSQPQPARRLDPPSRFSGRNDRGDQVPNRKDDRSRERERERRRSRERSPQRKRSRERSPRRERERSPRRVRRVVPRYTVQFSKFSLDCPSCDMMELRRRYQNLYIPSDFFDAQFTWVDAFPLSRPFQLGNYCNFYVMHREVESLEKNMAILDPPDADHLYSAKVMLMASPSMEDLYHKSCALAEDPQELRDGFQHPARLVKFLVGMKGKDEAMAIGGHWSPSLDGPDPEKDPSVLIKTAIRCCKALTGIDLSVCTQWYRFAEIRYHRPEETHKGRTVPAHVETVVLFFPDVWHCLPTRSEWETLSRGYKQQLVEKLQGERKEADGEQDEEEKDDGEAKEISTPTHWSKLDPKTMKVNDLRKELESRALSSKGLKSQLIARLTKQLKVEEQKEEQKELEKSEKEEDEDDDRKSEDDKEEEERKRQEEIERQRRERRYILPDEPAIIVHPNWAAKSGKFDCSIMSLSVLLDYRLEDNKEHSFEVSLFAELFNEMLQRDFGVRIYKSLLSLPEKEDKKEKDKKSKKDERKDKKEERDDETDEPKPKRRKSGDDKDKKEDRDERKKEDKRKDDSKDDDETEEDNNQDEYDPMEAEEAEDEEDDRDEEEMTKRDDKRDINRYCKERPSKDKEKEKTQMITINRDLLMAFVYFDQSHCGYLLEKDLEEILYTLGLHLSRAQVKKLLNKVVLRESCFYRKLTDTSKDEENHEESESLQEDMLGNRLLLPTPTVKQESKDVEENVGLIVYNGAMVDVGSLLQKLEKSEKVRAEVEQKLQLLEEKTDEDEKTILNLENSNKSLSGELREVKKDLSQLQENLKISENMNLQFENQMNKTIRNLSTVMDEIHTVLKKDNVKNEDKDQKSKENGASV

[8] = Homo sapiens, MDA-MB-468, 5 μM compound + 5 μM doxorubicin, 24 h, read-out: Cell viability inhibition (%) with Doxorubicin MDA-MB-468
[9] = MDA-MB-231, 5 μM compound + 5 μM doxorubicin, 24 h, read-out: Cell viability inhibition (%) with Doxorubicin MDA-MB-231
[10] = single agent, SNI analogs 5 μM, doxorubicin 5 μM

Row | SMILES | Cell viability inhibition in combination with cisplatin compared with SNI-1 ([1]; 24 h) | Cell viability inhibition (%) (Single agent) MDA-MB-468 ([1]; single agent, 24 h) | Cell viability inhibition (%) Single-agent HCC-1937 [4] | cytotoxicity at 5 µM [1, 8] | cytotoxicity at 5 µM [2, 9] | Cell viability inhibition (%) Single-agent MDA-MB-231 [2, 10] | other results
1 | COc1cccc2c1C(=O)c1c(O)c3c(c(O)c1C2=O)C[C@@](O)(C(=O)CO)C[C@@H]3O[C@H]1C[C@H](N)[C@H](O)[C@H](C)O1 [Doxorubicin, reference compound] |  |  |  |  |  |  | cytotoxicity at 5 µM ([1]; Homo sapiens, MDA-MB-468, 24 h, read-out: Cell viability inhibition (%) (Single agent) MDA-MB-468): ~39%; cytotoxicity at 5 µM ([2]; MDA-MB-231, single agent, SNI analogs 5 μM, doxorubicin 5 μM, read-out: Cell viability inhibition (%) Single-agent MDA-MB-231): ~56%
2 | O=C(CSc1nc(-c2ccccc2)cs1)c1ccc(O)c(O)c1 [GL-216] | viability inhibition equal to or better than parent SNI-1 | 10% |  |  |  |  | Cell viability inhibition (%) with Cisplatin HCC-1937 ([3]; 5 μM compound + 20 μM cisplatin): ~46%; Cell viability inhibition (%) Single-agent HCC-1937 ([3]; single agent, SNI analogs 5 μM, cisplatin 20 μM): ~5%; Cell viability inhibition (%) with Doxorubicin MDA-MB-468 ([1]; 5 μM compound + 5 μM doxorubicin, 24 h): ~80%
3 | CCOC(=O)c1ccc(-n2nnnc2SCC(=O)c2ccc(O)c(O)c2)cc1 [GL-251, Ethyl 4-(5-((2-(3,4-dihydroxyphenyl)-2-oxoethyl)thio)-1H-tetrazol-1-yl)benzoate] |  |  |  |  |  |  | Cell viability inhibition as single agent compared with SNI-1 ([1]; 5 μM, 24 h): greater cell viability inhibition as a single agent when compared to SNI-1
4 | NS(=O)(=O)c1ccc(-n2nnnc2SCC(=O)c2ccc(O)c(O)c2)cc1 [GL-252, 4-(5-((2-(3,4-dihydroxyphenyl)-2-oxoethyl)thio)-1H-tetrazol-1-yl)benzenesulfonamide] | slightly higher viability inhibition compared with cisplatin and SNI-1 in combination or cisplatin alone; also recorded: viability inhibition equal to or better than parent SNI-1 | 18% | ~10% | 62% |  |  | Cell viability inhibition as single agent compared with SNI-1 ([1]; 5 μM, 24 h): greater cell viability inhibition as a single agent when compared to SNI-1
5 | Cc1ccc(-n2nnnc2SCC(=O)c2ccc3c(c2)OCCO3)cc1 [GL-268, 1-(2,3-dihydrobenzo[b][1,4]dioxin-6-yl)-2-((1-(p-tolyl)-1H-tetrazol-5-yl)thio)ethan-1-one] | viability inhibition equal to or better than parent SNI-1 |  |  |  |  |  | 
6 | Cc1ccc(-n2nnnc2SCC(=O)c2ccc(N3CCOCC3)cc2)cc1 [GL-269, 1-(4-morpholinophenyl)-2-((1-(p-tolyl)-1H-tetrazol-5-yl)thio)ethan-1-one] | much better activity in combination with cisplatin; also recorded: viability inhibition equal to or better than parent SNI-1 | 37% | ~10% | 53% |  |  | 
7 | COc1ccc(C(=O)CSc2nnnn2-c2ccc(C)cc2)cc1OC [GL-339, 1-(3,4-dimethoxyphenyl)-2-((1-(p-tolyl)-1H-tetrazol-5-yl)thio)ethan-1-one] | greater inhibition in combination with cisplatin |  |  |  |  |  | 
8 | O=C(CSc1nnnn1-c1ccc(Cl)cc1Cl)c1ccc(O)c(O)c1 [GL-341, 2-((1-(2,4-dichlorophenyl)-1H-tetrazol-5-yl)thio)-1-(3,4-dihydroxyphenyl)ethan-1-one] | greater inhibitory effect | ~3% | ~6% | ~49% | ~68% | ~21% | Cytotoxicity in combination with doxorubicin compared with SNI-1 ([1]; 24 h): slightly higher cytotoxicity; Efficacy in combination with cisplatin compared with SNI-1 ([2]; MDA-MB-231, 5 μM compound + 20 μM cisplatin, 48 h): better efficacy when used in combination with cisplatin compared to SNI-1 and cisplatin itself; Inhibition of viabilities as single agent compared with SNI-1 ([2]; MDA-MB-231, single agent, 5 μM): greater inhibition of viabilities than SNI-1
9 | O=C(CSc1nnnn1-c1ccc([N+](=O)[O-])cc1)c1ccc(O)c(O)c1 [GL-342, 1-(3,4-dihydroxyphenyl)-2-((1-(4-nitrophenyl)-1H-tetrazol-5-yl)thio)ethan-1-one] | greater inhibitory effect | ~22.27% | ~21% | ~50% | ~73% | ~23% | Activity in combination with cisplatin compared with SNI-1 ([3]; HCC-1937, 5 μM compound + 20 μM cisplatin): more cell viability inhibition than SNI-1 in combination with cisplatin; Extra loss of cell viability versus parent SNI-1 at 5 µM ([1]; Homo sapiens, MDA-MB-468 (FIG. 9), single agent, 5 μM, 24 h, read-out: Greater loss of cell viability as compared to parent SNI-1): ~10%; Cytotoxicity in combination with doxorubicin compared with SNI-1 ([1]; 24 h): slightly higher cytotoxicity; Cell viability inhibition as single agent compared with SNI-1 ([1]; 5 μM, 24 h): more cell viability inhibition; Inhibition of viabilities as single agent compared with SNI-1 ([2]; MDA-MB-231, single agent, 5 μM): more cell viability inhibition; also recorded: greater inhibition of viabilities than SNI-1
10 | NS(=O)(=O)c1ccc(-n2nnnc2SCC(=O)c2ccc(N3CCOCC3)cc2)cc1 [GL-343, 4-(5-((2-(4-morpholinophenyl)-2-oxoethyl)thio)-1H-tetrazol-1-yl)benzenesulfonamide] |  | ~2% | ~1% | ~57% | ~79% | ~36% | cytotoxicity at 5 µM ([2]; MDA-MB-231, single agent, 5 μM, read-out: Greater inhibition of cell viability when compared with SNI-1 as a single agent): ~30%; Cytotoxicity in combination with doxorubicin compared with SNI-1 ([2]; MDA-MB-231, 5 μM compound + 5 μM doxorubicin, 24 h): much better cytotoxicity when compared with SNI-1; Inhibition of viabilities as single agent compared with SNI-1 ([2]; MDA-MB-231, single agent, 5 μM): greater inhibition of viabilities than SNI-1
11 | Cc1ccc(-n2nnnc2SCC(=O)c2ccc(O)c(O)c2)cc1 [SNI-1, 1-(3,4-dihydroxyphenyl)-2-((1-(p-tolyl)-1H-tetrazol-5-yl)thio)ethan-1-one] |  | 10% | 11% | ~75% | ~77% | ~8% | Loss of viability in combination with cisplatin (previous studies) [5]: significant loss of viability; Response as a single agent in the syngeneic 4T1 TNBC model [6]: failed its response; Binding with CARP-1 and inhibition of its interaction with NEMO [7]: binds with CARP-1 and inhibits its interaction with NEMO
